According to patent US20220016183A1, “EXOSOME AND VARIOUS USES THEREOF” (PROSTEMICS CO., LTD., priority 2018, published 2022):

Test system: Dermal papilla cells, DPC
Experiment: Dermal papilla cell (DPC) proliferation, CCK-8
Format: cell-based
Conditions: 10 μM, 24 hours
Method: After dispensing a serum medium with 10,000 cells/well of papillary cells (Dermal papilla cells, DPC) in a 96-well microplate, the cells were incubated overnight at 37° C. in a CO2 incubator. […] After removing the treated material from each cell and dispensing the CCK-8 solution thereto, the cells were incubated in the CO2 incubator at 37° C. for 2 hours, and absorbance was measured at 450 nm.

Nc1cc(N2CCCCC2)nc(N)[n+]1[O-] [M1, Minoxidil]
DPC proliferation rate (%): 118.97%
